From patent US8791098B2 (priority 2008, dated 2014)
Values after ≈ are worked out from the molar mass of the structure shown. Like-named read-outs stand apart in the source and are kept apart here.

Legend:
COS-7 = assay: cells; assay type: cell-based, African green monkey; conditions: Chlorocebus sabaeus; COS-7, average of two measurements; read-out: IC50
Description: (§1) Cytotoxicity testing of pretubulysin (AU827), N-desmethyl-pretubulysin (AU816) and Tubulysin A and D was performed as follows: Cells were seeded at 6×10^3 cells per well of 96-well plates in 180 μl complete medium and directly treated with varying concentrations of (pre-)tubulysins diluted in methanol. Each compound was tested in duplicate as well as the internal methanol control. After 5 d incubation, 20 μl of 5 mg/ml MTT (Thiazolyl blue tetrazolium bromide) in PBS was added per well and it was further incubated for 2 h at 37° C. The medium was then discarded and cells were washed with 100 μl PBS before adding 100 μl 2-propanol/10 N HCl (250:1) in order to dissolve formazan granules.
(§2) The absorbance at 570 nm was measured using a microplate reader (EL808, Bio-Tek Instruments Inc.), and cell viability was expressed as percentage relative to the respective methanol control. IC50 values were obtained by plotting relative growth inhibition in % against the compound concentration on a logarithmic scale. After sigmoidal curve fitting IC50 values can be determined. The IC50[per ml] are shown in the following table (values represent the average of two measurements): […]

[1] = biological target: T1, purified microtubules protein isolated from porcine brain (Sus scrofa, UniProt P02550+P02554); assay: Turbidometric microtubules protein polymerization assay; assay type: biochemical; conditions: 10 μM microtubules protein, 10 min, 37° C.
T1 construct: Microtubules proteins were purified from porcine brain; from tissue; host or cells: porcine brain
T1 sequence (P02554 whole entry): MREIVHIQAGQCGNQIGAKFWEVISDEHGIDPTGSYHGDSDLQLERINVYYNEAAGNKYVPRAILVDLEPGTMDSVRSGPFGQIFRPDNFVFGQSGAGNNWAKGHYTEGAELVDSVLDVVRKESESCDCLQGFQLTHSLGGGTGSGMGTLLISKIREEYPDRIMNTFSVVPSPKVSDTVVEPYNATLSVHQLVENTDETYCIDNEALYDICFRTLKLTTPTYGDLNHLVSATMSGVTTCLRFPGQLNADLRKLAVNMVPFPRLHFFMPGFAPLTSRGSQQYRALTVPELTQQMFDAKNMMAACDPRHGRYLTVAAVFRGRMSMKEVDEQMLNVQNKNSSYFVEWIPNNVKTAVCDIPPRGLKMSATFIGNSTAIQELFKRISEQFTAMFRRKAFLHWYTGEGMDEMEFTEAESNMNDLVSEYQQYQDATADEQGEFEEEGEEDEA
T1 sequence (P02550 whole entry): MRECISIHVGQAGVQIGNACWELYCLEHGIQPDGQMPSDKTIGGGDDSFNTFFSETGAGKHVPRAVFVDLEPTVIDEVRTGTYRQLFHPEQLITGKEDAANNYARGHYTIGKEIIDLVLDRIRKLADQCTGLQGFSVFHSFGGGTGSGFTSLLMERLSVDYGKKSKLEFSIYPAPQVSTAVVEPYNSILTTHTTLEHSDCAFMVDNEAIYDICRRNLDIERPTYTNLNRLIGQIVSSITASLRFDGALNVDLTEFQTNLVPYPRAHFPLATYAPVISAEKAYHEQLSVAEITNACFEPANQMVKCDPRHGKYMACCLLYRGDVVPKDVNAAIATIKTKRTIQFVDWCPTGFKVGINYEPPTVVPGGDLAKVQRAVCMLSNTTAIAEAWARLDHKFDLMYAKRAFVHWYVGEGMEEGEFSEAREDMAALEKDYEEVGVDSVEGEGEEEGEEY
Description: Tubulin purification: Microtubules proteins were purified from porcine brain by using standard procedures that includes three cycles of temperature-dependent polymerization and de-polymerization, as described elsewhere.
Polymerisation assay: Tubulin polymerisation was monitored by using turbidometry assay (lit). Samples (200 μl, 10 μM tubulin) in PEM polymerisation buffer (0.1 M PIPES, pH 6.6, 1 mM EGTA, 1 mM MgSO4, and 1 mM GTP), were rapidly warmed to 37° C. in a water-jacketed cuvette holder of a diode array photometer (Beckman spectrophotometer DU 7500). Absorbance at 350 nm where monitored in the absence and the presence of the drugs.
10 μM of purified microtubles protein were mixed on ice with 0, 1.7, 3.2, and 6.7 μM pre-tubulysin-816. Microtubules protein polymerization was then monitored for 10 min at 350 nm and 37° C. […] 1.7 μM of the drug was able to inhibit the polymerization of the protein by approximately 20%. Increase the concentration of the drug to 6.7 μM induced an inhibition of the polymerization to 60%.
Therefore, we were interested to test its activity on the polymerization of microtubules in vitro. We first studied its polymerization inhibition potential on microtubules polymerization. 10 μM of purified microtubules protein were mixed on ice with 0, 1, 1.7 and 3.4 μM pre-tubulysin-827 on ice. Microtubules protein polymerization was then monitored for 10 min at 350 nm and 37° C.

L929 = assay: Anti-proliferation MTT assay (Example 2, Table 1); assay type: cell-based; conditions: L929 mouse connective tissue fibroblast
Description: A given number of cells were cultivated in 96-well plates with serial dilutions of the drugs up to 100 ng/ml. Tubulysin A is used as a positive control, whereas methanol is used as a negative control. After 5 days of incubation the metabolic activities of the cells were measured using MTT-assay as described under the methods section.

[2] = tested on: U-2 OS human osteosarcoma cells; assay: cells; assay type: cell-based; conditions: Homo sapiens, U2OS, average of two measurements, read-out: IC50
Description: as §1
The absorbance at 570 nm was measured using a microplate reader (EL808, Bio-Tek Instruments Inc.), and cell viability was expressed as percentage relative to the respective methanol control. IC50 values were obtained by plotting relative growth inhibition in % against the compound concentration on a logarithmic scale. After sigmoidal curve fitting IC50 values can be determined. The IC50[per ml] are shown in the following table (values represent the average of two measurements):
Similarly cytotoxicity testing of Pretubulysin-related compounds in U-2 OS human osteosarcoma cells was performed and was further compared with AU 339 and AU 954, compounds mentioned in WO2008/106080 and WO2004/046170. The IC50 values are shown in the following table (values represent the average of two measurements): […]

K562 = assay: cells; assay type: cell-based, human; conditions: Homo sapiens; K562, average of two measurements; read-out: IC50
Description: as §1, §2

U937 = assay: cells; assay type: cell-based, human; conditions: Homo sapiens, U-937; U937, average of two measurements; read-out: IC50
Description: as §1, §2

A549 = assay: cells; assay type: cell-based, human; conditions: Homo sapiens; A549, average of two measurements; read-out: IC50
Description: as §1, §2

SW480 = assay: cells; assay type: cell-based, human; conditions: Homo sapiens; SW480, average of two measurements; read-out: IC50
Description: as §1, §2

KB3.1 = assay: cells; assay type: cell-based, human; conditions: Homo sapiens, KB 3-1; KB3.1, average of two measurements; read-out: IC50
Description: as §1, §2

HepG2 = assay: cells; assay type: cell-based, human; conditions: Homo sapiens; HepG2, average of two measurements; read-out: IC50
Description: as §1, §2

HEK293T = assay: cells; assay type: cell-based, human; conditions: Homo sapiens, HEK-293T, average of two measurements, read-out: IC50
Description: as §1, §2

HL-60 = assay: cells; assay type: cell-based, human; conditions: Homo sapiens; HL-60, average of two measurements; read-out: IC50
Description: as §1, §2

A431 = assay: cells; assay type: cell-based, human; conditions: Homo sapiens, A-431; A431, average of two measurements; read-out: IC50
Description: as §1, §2

SH-SY5Y = assay: cells; assay type: cell-based, human; conditions: Homo sapiens, average of two measurements, read-out: IC50
Description: as §1, §2

[3] = comparison with prior art compounds

What does the source list for `CC[C@H](C)[C@H](NC(=O)[C@H]1CCCCN1C)C(=O)N(C)[C@H](CCc1nc(C(=O)N[C@@H](Cc2ccccc2)C[C@H](C)C(=O)O)cs1)C(C)C` [pre-tubulysin-827, pretubulysin]?
IC50 (COS-7): 1.13 ng/mL (≈ 1.69 nM); inhibition at 1 µM ([1]; 1 μM drug): ~45%; inhibition at 3.4 µM ([1]; 3.4 μM drug): > 85%; IC50 (L929): 4.1 ng/mL (≈ 6.12 nM); IC50 [2]: 0.56 ng/mL (≈ 0.836 nM); IC50 [2, 3]: 0.56 ng/mL (≈ 0.836 nM); IC50 (K562): 0.35 ng/mL (≈ 0.522 nM); IC50 (U937): 0.043 ng/mL (≈ 0.0642 nM); IC50 (A549): 4.35 ng/mL (≈ 6.49 nM); IC50 (SW480): 0.21 ng/mL (≈ 0.313 nM); IC50 (KB3.1): 2.32 ng/mL (≈ 3.46 nM); IC50 (HepG2): 0.64 ng/mL (≈ 0.955 nM); IC50 (HEK293T): 0.227 ng/mL (≈ 0.339 nM); IC50 (HL-60): 0.0142 ng/mL (≈ 0.0212 nM); IC50 (A431): 1.24 ng/mL (≈ 1.85 nM); IC50 (SH-SY5Y): 0.61 ng/mL (≈ 0.911 nM)

How did the IC50 (COS-7) turn out when `CC[C@H](C)[C@H](NC(=O)[C@H]1CCCCN1C)C(=O)N(C)[C@H](CCc1nc(C(=O)N[C@H](CCC(=O)O)Cc2ccccc2)cs1)C(C)C` [pre-tubulysin-816, N-desmethyl-pretubulysin] was run?
Its IC50 is 9.63 ng/mL (≈ 14.7 nM).

What about the inhibition at 1.7 µM ([1]; 1.7 μM drug) of the same compound?
The inhibition at 1.7 µM was roughly 20%.

And the inhibition at 6.7 µM ([1]; 6.7 μM drug, printed as inhibition 'to 60%')?
The inhibition at 6.7 µM was 60%.

What about the IC50 (L929) of the same compound?
The IC50 was 37 ng/mL (≈ 56.4 nM).

What about the IC50 [2] of the same compound?
The IC50 was 3.23 ng/mL (≈ 4.92 nM).

And the IC50 [2, 3]?
The IC50 was 3.16 ng/mL (≈ 4.82 nM).

And the IC50 (K562)?
The IC50 was 2.5 ng/mL (≈ 3.81 nM).

What about the IC50 (U937) of the same compound?
Its IC50 is 0.38 ng/mL (≈ 0.579 nM).

And the IC50 (A549)?
Its IC50 is 31.2 ng/mL (≈ 47.6 nM).

What about the IC50 (SW480) of the same compound?
The IC50 was 3.16 ng/mL (≈ 4.82 nM).

What about the IC50 (KB3.1) of the same compound?
The IC50 was 26.3 ng/mL (≈ 40.1 nM).

And the IC50 (HepG2)?
The IC50 was 8.75 ng/mL (≈ 13.3 nM).

What about the IC50 (HEK293T) of the same compound?
Its IC50 is 1.68 ng/mL (≈ 2.56 nM).

And the IC50 (HL-60)?
The IC50 was 0.22 ng/mL (≈ 0.335 nM).

What about the IC50 (A431) of the same compound?
Its IC50 is 0.34 ng/mL (≈ 0.518 nM).

And the IC50 (SH-SY5Y)?
The IC50 was 2.9 ng/mL (≈ 4.42 nM).
